Broadly, the GI50 is the concentration giving 50% growth inhibition.

These results are taken from ChEMBL document CHEMBL1201862, “PubChem BioAssay data set” (2004).

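Grown in 96-well plates, cells were treated for 48 hours with each compound at five concentrations. Insufficient inhibition: endpoint recorded as highest concentration tested. The concentration for 50% growth inhibition is given as GI50.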 Calls of active or inactive are those of the source. Cut-off read from the data, not from the text of the source: active = GI50 up to about 1.1 µM and inactive = higher. Some results are limits rather than exact numbers.

Some test systems named below: DLD-1; DMS-114; DMS-273; HOP-18; KM-20L2; LXFL 529; SNB-78; XF498; RXF 631.
Holding throughout (assay): DTP human tumour cell line panel, 48 h

`O=C(CNC(=O)OCc1ccccc1)Oc1ccccc1`: the GI50 with DLD-1, with DMS-114, in the test with DMS-273, in the test with HOP-18, with KM-20L2 and in the test on LXFL 529 was > 100 µM (inactive) throughout. Also, the GI50 with SNB-78 and with XF498 was > 100 µM (inactive) in each case.
Regarding `NC(=O)/C=C/C(=O)O`, the GI50 in the test on DLD-1, with DMS-114, in the test on DMS-273, with HOP-18, in the test on LXFL 529 and with SNB-78 was > 5000 µM (inactive) throughout.
On to `O=[PH](O)c1cccnc1`, for which the GI50 in the test with DLD-1, in the test on DMS-114, in the test on DMS-273, in the test on KM-20L2, with LXFL 529 and in the test on RXF 631 was > 100 µM (inactive) each time. Also, the GI50 in the test on SNB-78 and with XF498 was > 100 µM (inactive) in each case.
Consider `Clc1ccc(SC(/C=C/NNC2=NN=C(c3ccccc3)C(c3ccccc3)N2)c2ccccc2)cc1` (stereo unspecified), for which the GI50 was 23.4 µM (inactive) in the test with DLD-1; 18.5 µM (inactive) in the test with DMS-114; 26.2 µM (inactive) in the test on DMS-273; 19.9 µM (inactive) with KM-20L2; 25 µM (inactive) in the test with RXF 631; 32.7 µM (inactive) with SNB-78. In addition, the GI50 with XF498 was 18.7 µM (inactive).
With `CN1CC[C@]2(C)c3c(O)cccc3CC3CCCC1C32C` (stereo partly specified), the GI50 was > 100 µM (inactive) with DLD-1; > 100 µM (inactive) in the test with DMS-114; 54.1 µM (inactive) in the test with HOP-18; > 100 µM (inactive) with KM-20L2; > 100 µM (inactive) in the test with LXFL 529; > 100 µM (inactive) with RXF 631. Also, the GI50 in the test with SNB-78 was > 100 µM (inactive); in the test on XF498, 59.6 µM (inactive).
For the molecule `CN(C)Cc1[nH]c2ccccc2c1C(=O)c1ccccc1`, the GI50 was > 100 µM (inactive) in the test on DLD-1; > 100 µM (inactive) in the test on DMS-273; 64.9 µM (inactive) with KM-20L2; > 100 µM (inactive) in the test with LXFL 529; 97.9 µM (inactive) in the test with XF498.
Regarding `COC1CC(Br)(C#N)C1` (stereo unspecified), the GI50 in the test with DLD-1, with DMS-114, in the test with HOP-18, in the test with KM-20L2 and in the test on SNB-78 was > 100 µM (inactive) each time.
As for `CC1=NN(C(=O)Cc2ccccc2)C(=O)/C1=C\c1cccc(O)c1`, the GI50 with DLD-1, with DMS-114, in the test with DMS-273, with HOP-18, in the test on SNB-78 and with XF498 was > 100 µM (inactive) in each case.
In the case of `COC(=O)C12OCC34C(CC5C(C)C6=CC(=O)OC6=CC5(C)C3C(O)C1O)OC(=O)C(OC(C)=O)C24` (stereo unspecified), the GI50 with DLD-1 was 14.6 µM (inactive); with DMS-114, 12.3 µM (inactive); in the test on DMS-273 it was 14.4 µM (inactive); with HOP-18, 14.2 µM (inactive); in the test with KM-20L2 it was 17 µM (inactive); in the test on LXFL 529, 14.6 µM (inactive). In addition, the GI50 with RXF 631 was 16.8 µM (inactive); with SNB-78 it was 11.6 µM (inactive); in the test on XF498 it was 12.2 µM (inactive).
Regarding `COc1cc(C(C)O)c[n+](CCc2c[nH]c3ccccc23)c1` (stereo unspecified), the GI50 was > 100 µM (inactive) in the test on DLD-1; > 100 µM (inactive) in the test on DMS-114; > 100 µM (inactive) with DMS-273; 56.9 µM (inactive) with KM-20L2; > 100 µM (inactive) in the test on LXFL 529; > 100 µM (inactive) with RXF 631. For the same molecule, in the test with XF498, the GI50 is > 100 µM (inactive).
Regarding `CC(=O)/C(=C\c1ccccc1O)C(=O)Nc1ccccc1C`, the GI50 in the test on DLD-1 was 20.1 µM (inactive); with DMS-114 it was 24.3 µM (inactive); in the test on HOP-18, 40.2 µM (inactive); in the test on LXFL 529, 22.3 µM (inactive); in the test with SNB-78 it was 23.4 µM (inactive); with XF498, 13.9 µM (inactive).
On to `COc1ccccc1-c1cc(O)c2cc3c(cc2n1)OCO3`, for which the GI50 is 40.2 µM (inactive) in the test with DLD-1, 19.6 µM (inactive) in the test with DMS-273, 48.9 µM (inactive) with LXFL 529 and 21.9 µM (inactive) in the test with XF498.
As to `CC[N+](C)(C)c1ccc(C(=C2C=CC(=[N+](C)C)C=C2)c2ccc(N(C)C)cc2)cc1`, the GI50 in the test on DLD-1 was 6.07 µM (inactive); with DMS-114 it was 11 µM (inactive); with DMS-273, 6.4 µM (inactive); with HOP-18, 6.89 µM (inactive); in the test with LXFL 529 it was 6.04 µM (inactive); in the test with RXF 631, 13.4 µM (inactive). Further, the GI50 in the test on XF498 is 15.8 µM (inactive).
On to `Cc1nc2ccccc2c(=O)n1/N=C(\N=N\c1ccccc1)c1ccccc1Cl`, for which the GI50 with DLD-1 was 42.6 µM (inactive); in the test on DMS-114 it was 26 µM (inactive); in the test on DMS-273 it was 41 µM (inactive); in the test with HOP-18 it was 13.6 µM (inactive); in the test on KM-20L2, 65.5 µM (inactive); with LXFL 529, 24.3 µM (inactive). The values for the GI50 with RXF 631, with SNB-78 and in the test on XF498 were > 71.4 µM (inactive), 30.2 µM (inactive) and 18.7 µM (inactive), respectively.
In the case of `Cc1cc(Cl)ccc1N1C(=O)C(=O)C(c2nc3ccccc3s2)C(=O)C1=O`, the GI50 with DLD-1, in the test with DMS-114, in the test with DMS-273, with HOP-18, in the test on KM-20L2 and in the test with LXFL 529 was > 100 µM (inactive) throughout. Further, the GI50 with RXF 631, with SNB-78 and in the test on XF498 was > 100 µM (inactive) in each case.
Consider `COc1cc(/C=C(\NC(=O)c2ccccc2)c2nc3ccc4c(c3[nH]2)C(=O)c2ccccc2C4=O)cc(OC)c1OC`, for which the GI50 with DLD-1 was 7.11 µM (inactive); in the test with DMS-114, 32.4 µM (inactive); in the test with DMS-273, 40.7 µM (inactive); in the test on KM-20L2 it was > 100 µM (inactive); in the test with LXFL 529, 49 µM (inactive); in the test on RXF 631, 58.7 µM (inactive). Moreover, the GI50 with SNB-78 was 76.7 µM (inactive); with XF498, > 100 µM (inactive).
Take `Cc1ccc(N2C(=O)C(Cl)=C(Cl)C2=O)cc1`: the GI50 is 20.9 µM (inactive) in the test with DLD-1; 19 µM (inactive) in the test with DMS-114; 62.5 µM (inactive) with DMS-273; 19 µM (inactive) with HOP-18; 24.2 µM (inactive) with KM-20L2; 19.1 µM (inactive) in the test on LXFL 529. Further, the GI50 is 21.1 µM (inactive) with RXF 631 and 24.2 µM (inactive) with SNB-78.
As to `O=S1(=O)CCCS(=O)(=O)C(c2ccccc2)=C1c1ccccc1`, the GI50 with DLD-1 is 39.7 µM (inactive); in the test on DMS-114 it was 42.7 µM (inactive); with HOP-18, 44.6 µM (inactive); in the test with KM-20L2, 37.2 µM (inactive); in the test on LXFL 529 it was 29.6 µM (inactive); with RXF 631, 84.7 µM (inactive). Also, the GI50 in the test on SNB-78 was > 100 µM (inactive).
As for `N#Cc1ccc(C2SCc3nc4ccccc4n32)cc1` (stereo unspecified), the GI50 was > 100 µM (inactive) with DLD-1; > 100 µM (inactive) in the test on DMS-273; 48.5 µM (inactive) in the test on HOP-18; 52.7 µM (inactive) in the test on KM-20L2; 45.4 µM (inactive) in the test with LXFL 529; > 100 µM (inactive) in the test on SNB-78. In addition, in the test on XF498, the GI50 is > 100 µM (inactive).
`C/C(=N\NC(=O)CC(=O)N(C(=O)c1ccc(Cl)cc1)c1ccc(C)cc1)c1ccccc1O`: the GI50 in the test with DLD-1 is 74.6 µM (inactive); in the test with DMS-114 it was 97.1 µM (inactive); in the test with DMS-273, 31.7 µM (inactive); in the test with KM-20L2, 18 µM (inactive); with LXFL 529 it was > 100 µM (inactive); in the test on RXF 631 it was > 100 µM (inactive). The results for the GI50 in the test on SNB-78 and in the test with XF498 were 57.3 µM (inactive) and > 100 µM (inactive), respectively.
As for `CCOCC(=O)N[C@H]1CCc2cc(OC)c(OC)c(OC)c2-c2ccc(SC)c(=O)cc21`, the GI50 was < 0.01 µM (active) in the test with DLD-1; < 0.01 µM (active) in the test on DMS-114; < 0.01 µM (active) with DMS-273; > 75.3 µM (inactive) with HOP-18; < 0.01 µM (active) in the test on KM-20L2; < 0.01 µM (active) with LXFL 529. For the same molecule, the GI50 in the test with RXF 631 was < 0.01 µM (active); with SNB-78, < 0.01 µM (active); in the test with XF498, < 0.0224 µM (active).
Consider `NC1=NN(c2ccccc2)C(=O)C1C(=O)C(=O)NC1C2CC3CC(C2)CC1C3` (stereo unspecified), for which the GI50 is > 100 µM (inactive) with DLD-1; > 100 µM (inactive) in the test on DMS-114; > 100 µM (inactive) in the test on DMS-273; > 100 µM (inactive) with HOP-18; > 100 µM (inactive) in the test on KM-20L2; 66.1 µM (inactive) in the test with LXFL 529. In addition, the GI50 in the test on RXF 631 and in the test on SNB-78 was > 100 µM (inactive) in each case.
In the case of `COc1cc(-c2cc(CCC(=O)Nc3ccccc3[N+](=O)[O-])n(-c3ccc([N+](=O)[O-])cc3[N+](=O)[O-])n2)ccc1O`, the GI50 with DLD-1 was > 10 µM (inactive); with DMS-114, > 10 µM (inactive); in the test on DMS-273 it was > 10 µM (inactive); in the test with HOP-18 it was > 10 µM (inactive); in the test with KM-20L2, > 10 µM (inactive); in the test on LXFL 529, 44.7 µM (inactive). Moreover, the GI50 was > 10 µM (inactive) with RXF 631, > 10 µM (inactive) with SNB-78 and > 100 µM (inactive) with XF498.
Turning to `O=C(NO)c1ccc([N+](=O)[O-])cc1`, the GI50 was 51.3 µM (inactive) in the test on DLD-1; 30.7 µM (inactive) in the test on DMS-114; 43.8 µM (inactive) in the test on DMS-273; 62.2 µM (inactive) in the test with KM-20L2; 25.1 µM (inactive) in the test with LXFL 529; 73.1 µM (inactive) with XF498.
Take `COC(=O)c1c2c(cc3c1CC1(Cc4cc5c(c(C(C)=O)c4C1)CCC5)C3)CCC2` (stereo unspecified): the GI50 was > 100 µM (inactive) with DLD-1; 61.5 µM (inactive) in the test with DMS-114; 29.9 µM (inactive) in the test with DMS-273; > 100 µM (inactive) in the test on HOP-18; 64.3 µM (inactive) in the test on LXFL 529; > 100 µM (inactive) in the test with SNB-78. The GI50 with XF498 was 31.3 µM (inactive).
